Experiments:
[1] = tested on: a variety of test species; assay: Pre-emergence herbicidal activity (Example 8a, Table 2); assay type: in vivo; design: key: 0 = no damage to plant, 5 = total damage to plant; conditions: application pre-emergence, rate 1000 g/ha, evaluated after 13 days
Procedure, shortened: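 Damage rated 13 days post-treatment on a 0-5 scale, 5 meaning total plant damage. Pots were sprayed pre-emergence, one day after sowing, with an acetone/water-derived aqueous spray containing 0.5% Tween 20. Plants grew under 14 h light, 65% humidity, 24/16 °C, watered twice daily.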

[2] = tested on: a variety of test species; assay: Post-emergence herbicidal activity (Example 8b, Table 3); assay type: in vivo; conditions: application post-emergence, rate 1000 g/ha, evaluated after 13 days, scale 0-5; for Herbicidal damage score, ABUTH: Abutilon theophrasti; for Herbicidal damage score, ALOMY: Alopecurus myosuroides; for Herbicidal damage score, AMARE: Amaranthus retroflexus; for Herbicidal damage score, ECHCG: Echinochloa crus-galli; for Herbicidal damage score, SETFA: Setaria faberi; for Herbicidal damage score, ZEAMX: Zea mays
Procedure, shortened: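 Damage was rated 0-5 (5 = total) 13 days after a post-emergence spray of acetone/water (50:50) plus 0.5% Tween 20 formulation. Plants were sprayed at 8 days' growth and kept at 24/16° C, 14 h light, 65% humidity, watered twice daily.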

SMILES	Pre-emergence herbicidal activity, damage score ABUTH [1]	Pre-emergence herbicidal activity, damage score ALOMY [1]	Pre-emergence herbicidal activity, damage score AMARE [1]	Pre-emergence herbicidal activity, damage score ECHCG [1]	Pre-emergence herbicidal activity, damage score SETFA [1]	Pre-emergence herbicidal activity, damage score ZEAMX [1]	Herbicidal damage score, ABUTH [2]	Herbicidal damage score, ALOMY [2]	Herbicidal damage score, AMARE [2]	Herbicidal damage score, ECHCG [2]	Herbicidal damage score, SETFA [2]	Herbicidal damage score, ZEAMX [2]
CC1=C(Cl)C(=O)N(c2cc(C#CC(C)(C)C)n(C)n2)C1O (stereo not drawn) [Compound B25]	0	0	2	0	0	0	3	1	3	1	1	0
CC1=C(Cl)C(=O)N(c2cc(CCC(C)C)n(C)n2)C1O (stereo not drawn) [Compound B27]	3	1	5	4	3	2	3	1	2	5	5	0
CCC1=C(Cl)C(=O)N(c2ccn(C)n2)C1O (stereo not drawn) [Compound B28]	0	0	0	0	0	0	0	0	0	0	0	0
CC1=C(Cl)C(=O)N(c2cc(C#CC(C)C)n(C)n2)C1O (stereo not drawn) [Compound B29]	0	0	2	0	0	0	0	0	0	2	2	0
CC1=C(Cl)C(=O)N(c2cc(C#CCC(C)C)n(C)n2)C1O (stereo not drawn) [Compound B30]	0	0	2	0	0	0	3	0	3	0	2	0
CCOC(C)(CC)c1cc(N2C(=O)C(Cl)=C(C)C2O)nn1C (stereo not drawn) [Compound B32]	5	4	5	5	5	4	5	5	5	5	5	4
CCC(C)c1cc(N2C(=O)C(Cl)=C(C)C2O)nn1C (stereo not drawn) [Compound B33]	5	4	5	5	5	4	5	5	5	5	5	5
CC#Cc1cc(N2C(=O)C(Cl)=C(C)C2O)nn1C (stereo not drawn) [Compound B35]	3	1	5	4	3	0	4	1	1	4	4	0
CSc1cc(N2C(=O)C(Cl)=C(C)C2O)nn1C (stereo not drawn) [Compound B36]	5	3	5	5	5	2	5	4	5	5	5	5
CC1=C(Cl)C(=O)N(c2cc(S(C)(=O)=O)n(C)n2)C1O (stereo not drawn) [Compound B38]	5	4	5	5	5	4	5	5	5	5	5	5
CC1=C(Cl)C(=O)N(c2cc(C(C)C(F)(F)F)n(C)n2)C1O (stereo not drawn) [Compound B39]	5	4	5	5	5	4	5	5	5	5	5	5
C/C=C\c1cc(N2C(=O)C(Cl)=C(C)C2O)nn1C (stereo not drawn) [Compound B43]	5	2	5	4	4	1	5	4	4	5	5	2
C=C(C)c1cc(N2C(=O)C(Cl)=C(C)C2O)nn1C (stereo not drawn) [Compound B45]	5	4	5	5	5	3	5	5	5	5	5	4
CC(C)=C(C)c1cc(N2C(=O)C(Cl)=C(C)C2O)nn1C (stereo not drawn) [Compound B48]	4	4	5	4	3	1	5	4	5	5	4	1
CCO/C=C\c1cc(N2C(=O)C(Cl)=C(C)C2O)nn1C (stereo not drawn) [Compound B49]	0	0	0	0	0	0	2	0	4	0	3	1

Source: patent US9605004B2, “Chemical compounds” (SYNGENTA LIMITED, priority 2013, dated 2017)
